Source: patent US20260207623A1, “USE OF ESTETROL IN HEPATICALLY IMPAIRED PATIENTS” (ESTETRA SRL, priority 2022, published 2026)

Test system: female subjects with normal hepatic function, mild, moderate or severe hepatic impairment
Test: Safety and tolerability (TEAEs, clinical laboratory, vital signs, physical examination) after a single oral dose of 20 mg E4 monohydrate in the hepatic impairment study
Assay type: in vivo, human
Settings: single oral 20 mg
Procedure: This was a Phase 1, multi-centre, open-label, PK, and safety study of a single oral dose of 20 mg E4 monohydrate in female subjects with normal hepatic function (Group 1), mild hepatic impairment (Group 2), moderate hepatic impairment (Group 3), and severe hepatic impairment (Group 4), as defined using the Child-Pugh classification at Screening.
Safety and tolerability assessments consisted of treatment-emergent AEs (TEAEs), clinical laboratory, vital signs, physical examination, and gynecological examination. Assessments were performed in accordance with Table 2 and Table 3 in Section 2.5.1.
AEs/TEAEs were recorded after signing of the ICF until completion of the follow up visit. Any clinically significant observations in results of clinical laboratory, vital signs, or physical examinations were recorded as AEs.
A TEAE is defined as any event not present prior to administration of the study drug or any event already present that worsens in either severity or frequency following exposure to the study drug.
The below listed tests were to be performed by the local laboratories at time points indicated in the Schedule of Assessments (Table 2).
Systolic and diastolic blood pressure and pulse were recorded after the subject had been resting for at least 5 minutes in the supine position at time points indicated in the Schedule of Assessments (Table 2). These assessments were made using an automated device. Body temperature and respiratory rate were measured subsequently.
A complete physical examination consisting of a review of all body systems was performed at time points indicated in the Schedule of Assessments (Table 2). A symptom-directed physical examination could be conducted at any time per Investigator's discretion.
2.6.2.2 Evaluation of Safety and Tolerability Safety and tolerability were assessed through TEAEs, clinical laboratory, vital signs, and physical examination findings, and any other parameter that was relevant for safety assessment.
A listing of all individual AEs is provided. Summary tables of TEAEs are presented by system organ class (SOC) based on the MedDRA terminology list (preferred terms): a table containing the number of subjects experiencing AEs by hepatic function, a table containing the number of subjects experiencing SAEs by hepatic function (if applicable), a table by hepatic function and relationship, and a table by hepatic function and severity.

[1] = Mild hepatic impairment (N = 8)
[2] = Moderate hepatic impairment (N = 8)
[3] = Normal hepatic function (N = 8)

`C[C@]12CC[C@@H]3c4ccc(O)cc4CC[C@H]3[C@@H]1[C@@H](O)[C@@H](O)[C@@H]2O` [E4 monohydrate, estetrol monohydrate] was tested, and the “TEAE by severity: Back pain, severity Mild” value [1] was 0 (0.0) n (%), the “TEAE by severity: Back pain, severity Moderate” value [1] was 0 (0.0) n (%) and the “TEAE by severity: Diarrhea, severity Mild” value [1] was 0 (0.0) n (%). For the same compound, the “TEAE by severity: Diarrhea, severity Moderate” value [1] was 0 (0.0) n (%), the “TEAE by severity: Gastrointestinal disorders, severity Mild” value [1] was 0 (0.0) n (%) and the “TEAE by severity: Gastrointestinal disorders, severity Moderate” value [1] was 0 (0.0) n (%). For the same compound, the “TEAE by severity: General disorders and administration site conditions, severity Mild” value [1] was 0 (0.0) n (%), the “TEAE by severity: Haemarthrosis, severity Mild” value (“TEAE by severity: Haemarthrosis” for short) [1] was 1 (12.5) n (%) and the “TEAE by severity: Headache, severity Mild” value [1] was 0 (0.0) n (%). The “TEAE by severity: Headache, severity Moderate” value [1] was 0 (0.0) n (%), the “TEAE by severity: Hypertension, severity Mild” value (from here on “TEAE by severity: Hypertension”) [1] was 2 (25.0) n (%) and the “TEAE by severity: Musculoskeletal and connective tissue disorders, severity Mild” value [1] was 1 (12.5) n (%). The “TEAE by severity: Musculoskeletal and connective tissue disorders, severity Moderate” value [1] was 0 (0.0) n (%), the “TEAE by severity: Nervous system disorders, severity Mild” value [1] was 0 (0.0) n (%) and the “TEAE by severity: Nervous system disorders, severity Moderate” value [1] was 0 (0.0) n (%). For the same compound, the “TEAE by severity: Pain in extremity, severity Mild” value (“TEAE by severity: Pain in extremity” for short) [1] was 0 (0.0) n (%), the “TEAE by severity: Pancreatitis, severity Moderate” value (from here on “TEAE by severity: Pancreatitis”) [1] was 0 (0.0) n (%) and the “TEAE by severity: Pyrexia, severity Mild” value [1] was 0 (0.0) n (%). For the same compound, the “TEAE by severity: Renal and urinary disorders, severity Mild” value [1] was 0 (0.0) n (%), the “TEAE by severity: Renal impairment, severity Mild” value (“TEAE by severity: Renal impairment” for short) [1] was 0 (0.0) n (%) and the “TEAE by severity: Vascular disorders, severity Mild” value [1] was 2 (25.0) n (%). The “TEAE: Back pain” value [1] was 0 (0.0) n (%), the “TEAE: Diarrhea” value [1] was 0 (0.0) n (%) and the “TEAE: Gastrointestinal disorders” value [1] was 0 (0.0) n (%). The “TEAE: General disorders and administration site conditions” value [1] was 0 (0.0) n (%), the “TEAE: Haemarthrosis” value [1] was 1 (12.5) n (%) and the “TEAE: Headache” value [1] was 0 (0.0) n (%). For the same compound, the “TEAE: Hypertension” value [1] was 2 (25.0) n (%), the “TEAE: Musculoskeletal and connective tissue disorders” value [1] was 1 (12.5) n (%) and the “TEAE: Nervous system disorders” value [1] was 0 (0.0) n (%). For the same compound, the “TEAE: Pain in extremity” value [1] was 0 (0.0) n (%), the “TEAE: Pancreatitis” value [1] was 0 (0.0) n (%) and the “TEAE: Pyrexia” value [1] was 0 (0.0) n (%). The “TEAE: Renal and urinary disorders” value [1] was 0 (0.0) n (%), the “TEAE: Renal impairment” value [1] was 0 (0.0) n (%) and the “TEAE: Total Subjects with at Least One TEAE” value [1] was 2 (25.0) n (%). For the same compound, the “TEAE: Vascular disorders” value [1] was 2 (25.0) n (%), the “TEAE by severity: Back pain, severity Mild” value [2] was 0 (0.0) n (%) and the “TEAE by severity: Back pain, severity Moderate” value [2] was 0 (0.0) n (%). The “TEAE by severity: Diarrhea, severity Mild” value [2] was 2 (25.0) n (%), the “TEAE by severity: Diarrhea, severity Moderate” value [2] was 0 (0.0) n (%) and the “TEAE by severity: Gastrointestinal disorders, severity Mild” value [2] was 2 (25.0) n (%). The “TEAE by severity: Gastrointestinal disorders, severity Moderate” value [2] was 0 (0.0) n (%), the “TEAE by severity: General disorders and administration site conditions, severity Mild” value [2] was 1 (12.5) n (%) and the “TEAE by severity: Haemarthrosis” value [2] was 0 (0.0) n (%). The “TEAE by severity: Headache, severity Mild” value [2] was 1 (12.5) n (%), the “TEAE by severity: Headache, severity Moderate” value [2] was 1 (12.5) n (%) and the “TEAE by severity: Hypertension” value [2] was 0 (0.0) n (%). For the same compound, the “TEAE by severity: Musculoskeletal and connective tissue disorders, severity Mild” value [2] was 1 (12.5) n (%), the “TEAE by severity: Musculoskeletal and connective tissue disorders, severity Moderate” value [2] was 0 (0.0) n (%) and the “TEAE by severity: Nervous system disorders, severity Mild” value [2] was 1 (12.5) n (%). For the same compound, the “TEAE by severity: Nervous system disorders, severity Moderate” value [2] was 1 (12.5) n (%), the “TEAE by severity: Pain in extremity” value [2] was 1 (12.5) n (%) and the “TEAE by severity: Pancreatitis” value [2] was 0 (0.0) n (%). For the same compound, the “TEAE by severity: Pyrexia, severity Mild” value [2] was 1 (12.5) n (%), the “TEAE by severity: Renal and urinary disorders, severity Mild” value [2] was 0 (0.0) n (%) and the “TEAE by severity: Renal impairment” value [2] was 0 (0.0) n (%). For the same compound, the “TEAE by severity: Vascular disorders, severity Mild” value [2] was 0 (0.0) n (%), the “TEAE: Back pain” value [2] was 0 (0.0) n (%) and the “TEAE: Diarrhea” value [2] was 2 (25.0) n (%). For the same compound, the “TEAE: Gastrointestinal disorders” value [2] was 2 (25.0) n (%), the “TEAE: General disorders and administration site conditions” value [2] was 1 (12.5) n (%) and the “TEAE: Haemarthrosis” value [2] was 0 (0.0) n (%). For the same compound, the “TEAE: Headache” value [2] was 2 (25.0) n (%), the “TEAE: Hypertension” value [2] was 0 (0.0) n (%) and the “TEAE: Musculoskeletal and connective tissue disorders” value [2] was 1 (12.5) n (%). For the same compound, the “TEAE: Nervous system disorders” value [2] was 2 (25.0) n (%), the “TEAE: Pain in extremity” value [2] was 1 (12.5) n (%) and the “TEAE: Pancreatitis” value [2] was 0 (0.0) n (%). For the same compound, the “TEAE: Pyrexia” value [2] was 1 (12.5) n (%), the “TEAE: Renal and urinary disorders” value [2] was 0 (0.0) n (%) and the “TEAE: Renal impairment” value [2] was 0 (0.0) n (%). The “TEAE: Total Subjects with at Least One TEAE” value [2] was 4 (50.0) n (%), the “TEAE: Vascular disorders” value [2] was 0 (0.0) n (%) and the “TEAE by severity: Back pain, severity Mild” value [3] was 0 (0.0) n (%). The “TEAE by severity: Back pain, severity Moderate” value [3] was 1 (12.5) n (%), the “TEAE by severity: Diarrhea, severity Mild” value [3] was 0 (0.0) n (%) and the “TEAE by severity: Diarrhea, severity Moderate” value [3] was 1 (12.5) n (%). For the same compound, the “TEAE by severity: Gastrointestinal disorders, severity Mild” value [3] was 0 (0.0) n (%), the “TEAE by severity: Gastrointestinal disorders, severity Moderate” value [3] was 2 (25.0) n (%) and the “TEAE by severity: General disorders and administration site conditions, severity Mild” value [3] was 0 (0.0) n (%). The “TEAE by severity: Haemarthrosis” value [3] was 0 (0.0) n (%), the “TEAE by severity: Headache, severity Mild” value [3] was 0 (0.0) n (%) and the “TEAE by severity: Headache, severity Moderate” value [3] was 0 (0.0) n (%). For the same compound, the “TEAE by severity: Hypertension” value [3] was 0 (0.0) n (%), the “TEAE by severity: Musculoskeletal and connective tissue disorders, severity Mild” value [3] was 0 (0.0) n (%) and the “TEAE by severity: Musculoskeletal and connective tissue disorders, severity Moderate” value [3] was 1 (12.5) n (%). For the same compound, the “TEAE by severity: Nervous system disorders, severity Mild” value [3] was 0 (0.0) n (%), the “TEAE by severity: Nervous system disorders, severity Moderate” value [3] was 0 (0.0) n (%) and the “TEAE by severity: Pain in extremity” value [3] was 0 (0.0) n (%). For the same compound, the “TEAE by severity: Pancreatitis” value [3] was 1 (12.5) n (%), the “TEAE by severity: Pyrexia, severity Mild” value [3] was 0 (0.0) n (%) and the “TEAE by severity: Renal and urinary disorders, severity Mild” value [3] was 0 (0.0) n (%). The “TEAE by severity: Renal impairment” value [3] was 0 (0.0) n (%).
